Test results as given in article PMC8268181, “Pharmacokinetic evaluation of Chalcone derivatives with antimalarial activity in New Zealand White Rabbits” (BMC Research Notes, 2021).
Entries after “also recorded” stand apart in the source; their conditions may differ. Like-named read-outs stand apart in the source and are kept apart here. Values belong to the molecule of their own block, whether it stands above or below them.

Experiment: In vivo pharmacokinetic study, single intraperitoneal/oral dose, plasma concentration by RP-HPLC
Set-up: species or system New Zealand White rabbits
Settings: for C0 / AUC(0-t) / half-life / Tmax / Cmax: both sexes, New Zealand White, plasma; for C0: read-out: C0 (concentration of administrated drug at time zero); for AUC(0-t): linear trapezoidal method, read-out: AUC0–48 (area under the total plasma concentration–time curve); for half-life: read-out: t1/2 (elimination half-life) (converted); for Tmax: rabbit, read-out: tmax (time to reach the peak plasma concentration); for Cmax: read-out: Cmax (peak plasma concentration); for increased bioavailability as compared to in vitro concentration: in vitro concentration from ref 15; for bioavailability (in words): single dose, derivative 1 intraperitoneal, derivatives 2 and 3 oral
Excerpt: The ten healthy adult New Zealand White rabbits weighing between 1.75–2.75 kg of either sex were procured from the institute Advanced Facility for Small Animal Research, PGIMER Chandigarh, after approval from the Institutional Animal Ethics Committee Ref. No. 69/IAEC/418 as per the Committee for the Purpose of Control and Supervision of Experiments on Animals (CPCSEA) guidelines. The animals were housed in polypropylene cages under standard laboratory conditions at controlled temperature (25 ± °C) and 12-h light/dark cycles until the end of the experimental period. Animals were given free access to diet and water in a room and were fasten for at least 12 h prior to experiment. To achieve meaningful statistical results, we used a minimally sufficient number of animals in all cases. A fifteen-days washout period was carried out, which allows animals to completely recover and clear off the administered derivatives.
A total of ten healthy adult New Zealand White rabbits were divided into three groups; (i) derivative 1 treated group, (ii) derivative 2 treated group, and (iii) derivative 3 treated group. The whole experiment was performed in two batches with each batches containing n = 3 animals per group. The second batch with same groups were repeated after giving fifteen-days washout period which helps animals to recover and clear off previous administered derivatives. The three chalcone derivatives were administered at effective dose concentration [dose extrapolated from in vitro study, [15] as per OECD GLP compliance. A single dose of each chalcone derivatives 1, 2 & 3 (suspended in 0.5% carboxymethyl cellulose) were administered to each animal in the early morning at 7:00 am, which was noted as 0 h and then blood samples (1 mL) of animals were collected at specific time intervals of 0, 0.25 h, 0.5 h, 1 h, 2 h, 4 h, 6 h, 8 h, 12 h, 24 h, 36 h, 48 h from marginal ear vein in heparin containing vials. These derivatives were either administered orally through orogastric tube or intraperitoneally. All blood samples were collected from the marginal ear vein after topical anaesthesia with 4% lignocaine solution. No euthanasia procedure was required during the study, and after completion of experiments all animals were kept in rehabilitation centre according to CPCSEA guidelines, in the institute Advanced Facility for Small Animal Research, PGIMER, Chandigarh. Plasma samples for the determination of drug concentration were prepared for RP-HPLC analysis.
Rabbit blood samples were accumulated in heparin contained dry evacuated tubes from marginal ear veins of healthy rabbits as per the standard operating procedure. These samples were centrifuged within 1 h of collection, for segregation of plasma at 1500 rpm for 10 min. The segregated plasma was preserved at […] till assay. Prior experimental analysis the deproteinization of the plasma samples was done in the mixture of methanol and water (90:10 v/v), then vortexed for at least 10–15 min, after while centrifuged for at least 15 min at 6000 rpm, and finally supernatants were pipette-out in a new vial. The supernatants were then spiked with the measured volume of diluted stock solutions of chalcone making up to final concentrations of 10–100 μg/mL.
Each sample has been collected from rabbits at a different time interval and plasma was separated and either processed for assay procedure or stored at – 20 °C in deep freezer till experiment. On the day of the experiment, 100 µL of plasma from each vial was transferred to another and mixed with 100 µL of acetonitrile (HPLC analytical Grade). Then was kept for 5 min at room temperature and then centrifuged at 7000 rpm for 10 min. Supernatant was separated and reconstituted with the mobile phase and finally sterile filter with 0.22 µm membrane filter before the assay procedure.
Chromatographic separation was achieved as mentioned earlier with slight modification. […]

[1] = 3.64 mg/kg, derivative 3, single oral dose 5.46 mg/1.5 kg rabbit, mean ± SEM, n = 6
[2] = ip, derivative 1, single intraperitoneal dose 5.46 mg/1.5 kg rabbit, mean ± SEM, n = 6
[3] = 4.85 mg/kg, derivative 2, single oral dose 7.28 mg/1.5 kg rabbit, mean ± SEM, n = 5
[4] = derivative 2, single oral dose 7.28 mg/1.5 kg rabbit (4.85 mg/kg), mean ± SEM, n = 5

C0 [1]: 944 ± 7 ng/mL
AUC(0-t) [1]: 14.2 ± 3.78 µg·h/mL
half-life [1]: 13.3 ± 1.67 h
Tmax (po, 3.64 mg/kg, derivative 3, single oral dose 5.46 mg/1.5 kg rabbit (3.64 mg/kg), mean ± SEM, n = 6): 2.83 ± 0.87 h
Cmax (derivative 3, single oral dose 5.46 mg/1.5 kg rabbit (3.64 mg/kg), mean ± SEM, n = 6): 3740 ± 1640 ng/mL
increased bioavailability as compared to in vitro concentration (compound 3, single oral dose): 25 fold
mean CL (derivative 3, single 3.64 mg/kg oral dose): 0.53 ± 0.10 L/h
kinetics of metabolism / elimination phase (in words) (derivative 3, single oral dose): first order kinetics
Vd (volume of distribution) (derivative 3, single oral dose 5.46 mg/1.5 kg rabbit, mean ± SEM, n = 6): 9.12 ± 0.73 L
SMILES: COc1ccc(/C=C/C(=O)c2cc(OC)c(OC)c(OC)c2)cc1OC [Derivative 3, (E)-1-(3,4,5-Trimethoxyphenyl)-3-(3,4-dimethoxyphenyl)prop-2-en-1-one]
bioavailability (in words): poor bioavailability; also recorded: very low bioavailability

Cmax (ip, derivative 1, single intraperitoneal dose 5.46 mg/1.5 kg rabbit (text: 3.84 mg/kg), mean ± SEM, n = 6): 1960 ± 460 ng/mL
C0 [2]: 966 ± 25 ng/mL
AUC(0-t) [2]: 2.94 ± 0.83 µg·h/mL
half-life [2]: 12.6 ± 2.09 h
Tmax (ip, 5.46 mg/1.5 kg rabbit, derivative 1, single intraperitoneal dose 5.46 mg/1.5 kg rabbit (text: 3.84 mg/kg), mean ± SEM, n = 6): 0.33 ± 0.05 h
increased bioavailability as compared to in vitro concentration (compound 1, single intraperitoneal dose): three fold
first blood sampling time at which derivative was spotted in plasma (derivative 1, after IP administration): 15 min
mean CL (derivative 1, single 3.84 mg/kg intraperitoneal dose): 0.28 ± 0.08 L/h
Vd (volume of distribution) (derivative 1, single intraperitoneal dose 5.46 mg/1.5 kg rabbit, mean ± SEM, n = 6): 7.31 ± 0.29 L
bioavailability (in words): very low bioavailability
SMILES: COc1ccc(/C=C/C(=O)c2cc(OC)ccc2OC)cc1 [Derivative 1, (E)-1-(2,5-Dimethoxyphenyl)-3-(4-methoxyphenyl)prop-2-en-1-one]

C0 [3]: 986 ± 4 ng/mL
AUC(0-t) [3]: 3760 ± 739 µg·h/mL
half-life [3]: 93.3 ± 32.6 h
Tmax (po, 4.85 mg/kg, derivative 2, single oral dose 7.28 mg/1.5 kg rabbit (4.85 mg/kg), mean ± SEM, n = 5): 3.84 h
Cmax [4]: 69900 ± 5490 ng/mL
increased bioavailability as compared to in vitro concentration (compound 2, single oral dose): tenfold
mean CL (derivative 2, single 4.85 mg/kg oral dose): 0.15 ± 0.05 L/h
systemic exposure (in words) (derivative 2, single oral administration, compared to other two chalcone derivatives): comparatively better systemic exposure
time the peak concentration remained constant (derivative 2, single oral dose 4.85 mg/kg): 3 to 4 h
tmax (time to reach the peak plasma concentration) [4]: 3.4 ± 0.79 h
Vd (volume of distribution) (derivative 2, single oral dose 7.28 mg/1.5 kg rabbit, mean ± SEM, n = 5): 10.72 ± 0.66 L
SMILES: COc1ccc(/C=C/C(=O)c2cc(OC)c(OC)c(OC)c2)cc1 [Derivative 2, (E)-(3,4,5-Trimethoxyphenyl)-3-(4-methoxyphenyl)prop-2-en-1-one]
